From publication PMC7290285 (Viruses, 2020)

Each compound was assayed on ecotropic pseudo-typed lentiviral particles (luciferase) in PM1-mCat1 cells (assay: Luciferase-based viral integration assay using PM1-mCat1 cells). Settings: Human immunodeficiency virus 1, read-out: IC50 (in µM), viral integration assay.

Row | SMILES | IC50 [µM]
1 | CCNC1=NN=C(c2cc(C)n(C3CC3)c2C)CS1 [T5633521, CCNC1=NN=C(CS1)C1=C(C)N(C2CC2)C(C)=C1] | 1.05
2 | COc1ccccc1N1CCN(C(=O)c2cc(Cl)ccc2O)CC1 [T6328287, COC1=C(C=CC=C1)N1CCN(CC1)C(=O)C1=C(O)C=CC(Cl)=C1] | 3.89
3 | COC(=O)c1ccccc1NS(=O)(=O)c1c(F)cc(F)cc1Br [T6007055, COC(=O)C1=C(NS(=O)(=O)C2=C(Br)C=C(F)C=C2F)C=CC=C1] | 1.35
4 | CC(=O)c1ccccc1NC(=O)CNc1ccccc1-c1ccccc1 [T5989502, CC(=O)C1=C(NC(=O)CNC2=C(C=CC=C2)C2=CC=CC=C2)C=CC=C1] | 1.94
5 | CC(=O)c1ccc(NC(=O)CNc2ccccc2-c2ccccc2)cc1 [T5941648, CC(=O)C1=CC=C(NC(=O)CNC2=C(C=CC=C2)C2=CC=CC=C2)C=C1] | 7.85
6 | c1ccc(-c2csc3nc(CN4CCOCC4)nc(NCCC4CCCO4)c23)cc1 (stereo not drawn) [T5948460, C(CC1CCCO1)NC1=C2C(SC=C2C2=CC=CC=C2)=NC(CN2CCOCC2)=N1] | 2.33
7 | Cc1cccc(C)c1NC(=O)CN1CCCC1c1nc2ccccc2s1 (stereo not drawn) [T5823772, CC1=CC=CC(C)=C1NC(=O)CN1CCCC1C1=NC2=C(S1)C=CC=C2] | 8.88
8 | COc1ccc(CC(=O)Nc2ccc(OC)cc2)cc1 [T6053460, COC1=CC=C(CC(=O)NC2=CC=C(OC)C=C2)C=C1] | 6.46
9 | O=c1[nH]c(CSc2nnc(C3CC3)o2)nc2scc(-c3ccco3)c12 [T5983422, O=C1NC(CSC2=NN=C(O2)C2CC2)=NC2=C1C(=CS2)C1=CC=CO1] | 2.28
10 | Cc1ccc(S(=O)(=O)N2CCOCC2)cc1C(=O)Nc1ccccc1N1CCCC1 [T5530682, CC1=C(C=C(C=C1)S(=O)(=O)N1CCOCC1)C(=O)NC1=C(C=CC=C1)N1CCCC1] | 8.26
11 | Cc1cnc2c(S(=O)(=O)N3CCN(Cc4ccc5c(c4)OCCO5)CC3)cccc2c1 [T6332191, CC1=CC2=C(N=C1)C(=CC=C2)S(=O)(=O)N1CCN(CC2=CC3=C(OCCO3)C=C2)CC1] | 1.42
12 | O=C(CNc1ccccc1-c1ccccc1)Nc1ccccc1Cl [T5943324, ClC1=C(NC(=O)CNC2=C(C=CC=C2)C2=CC=CC=C2)C=CC=C1] | 7.79
13 | Clc1cccc(Nc2nc(CN3CCOCC3)nc3scc(-c4ccccc4)c23)c1 [T5363639, ClC1=CC(NC2=C3C(SC=C3C3=CC=CC=C3)=NC(CN3CCOCC3)=N2)=CC=C1] | 2
14 | C=CCOC(=O)C1=C(C)NC(=S)NC1c1ccc(C(C)C)cc1 (stereo not drawn) [T6203208, CC(C)C1=CC=C(C=C1)C1NC(=S)NC(C)=C1C(=O)OCC=C] | 4.37
15 | CN(C1CCCCC1)S(=O)(=O)c1cccc(C#N)c1 [T5339669, CN(C1CCCCC1)S(=O)(=O)C1=CC(=CC=C1)C#N] | 5.2
16 | O=C(COc1ccccc1-c1ccccc1)NCc1ccccc1Cn1cccn1 [T5945790, O=C(COC1=C(C=CC=C1)C1=CC=CC=C1)NCC1=C(CN2C=CC=N2)C=CC=C1] | 6.78
17 | c1csc(-c2csc3nc(CN4CCOCC4)nc(N4CCCC4)c23)c1 [T5587925, C(N1CCOCC1)C1=NC2=C(C(=CS2)C2=CC=CS2)C(=N1)N1CCCC1] | 3.97
18 | c1csc(-c2csc3nc(CN4CCOCC4)nc(NCC4CCCO4)c23)c1 (stereo not drawn) [T6061512, C(NC1=C2C(SC=C2C2=CC=CS2)=NC(CN2CCOCC2)=N1)C1CCCO1] | 6.48
19 | Cc1cccn2c(=O)cc(CN3CC(C(=O)N4CCCCC4)Oc4ccccc43)nc12 (stereo not drawn) [T5615894, CC1=CC=CN2C(=O)C=C(CN3CC(OC4=C3C=CC=C4)C(=O)N3CCCCC3)N=C12] | 2.93
20 | Cc1ccccc1-n1nnnc1SCc1nnc(-c2cccs2)o1 [T5805638, CC1=C(C=CC=C1)N1N=NN=C1SCC1=NN=C(O1)C1=CC=CS1] | 1.45
21 | O=C(Nc1ccccc1-n1cccn1)c1ccccc1Br [T6468172, BrC1=C(C=CC=C1)C(=O)NC1=C(C=CC=C1)N1C=CC=N1] | 1.04
22 | c1ccc(CCNc2nc(CN3CCOCC3)nc3scc(-c4cccs4)c23)nc1 [T6312425, C(CC1=NC=CC=C1)NC1=C2C(SC=C2C2=CC=CS2)=NC(CN2CCOCC2)=N1] | > 10
23 | CCc1ccc(-c2csc(Cn3c(CN4CCOCC4)nc4ccccc4c3=O)n2)cc1 [T5938606, CCC1=CC=C(C=C1)C1=CSC(CN2C(CN3CCOCC3)=NC3=C(C=CC=C3)C2=O)=N1] | 5.91
24 | CC(C)CCn1cnc2c1c(=O)n(CC(=O)NC1CC1)c(=O)n2Cc1ccccc1 [T5351795, CC(C)CCN1C=NC2=C1C(=O)N(CC(=O)NC1CC1)C(=O)N2CC1=CC=CC=C1] | 4.64
25 | Cc1ccc(F)c(NC(=O)c2ccc(OC(F)F)cc2)c1 [T5506295, CC1=CC(NC(=O)C2=CC=C(OC(F)F)C=C2)=C(F)C=C1] | 1.77
26 | COc1ccc(S(=O)(=O)N(Cc2cccc(C(F)(F)F)c2)c2ccccc2OC)cc1 [T5407044, COC1=CC=C(C=C1)S(=O)(=O)N(CC1=CC(=CC=C1)C(F)(F)F)C1=C(OC)C=CC=C1] | 4.11
27 | O=C(Cc1csc(-c2ccccn2)n1)N=c1sccn1Cc1ccccc1 [T6357587, O=C(CC1=CSC(=N1)C1=NC=CC=C1)N=C1SC=CN1CC1=CC=CC=C1] | 8.3

Row | SMILES | IC50 [µM]
28 | c1coc(-c2noc(CNc3ccccc3-n3cccn3)n2)c1 [T6671011, C(NC1=C(C=CC=C1)N1C=CC=N1)C1=NC(=NO1)C1=CC=CO1] | 4
29 | O=S(=O)(c1ccc(Oc2ncnc3scc(-c4ccc(F)cc4)c23)cc1)N1CCOCC1 [T5413794, FC1=CC=C(C=C1)C1=CSC2=C1C(OC1=CC=C(C=C1)S(=O)(=O)N1CCOCC1)=NC=N2] | 6.91
30 | Cc1ccccc1NC(=O)CNc1ccccc1-c1ccccc1 [T5947021, CC1=C(NC(=O)CNC2=C(C=CC=C2)C2=CC=CC=C2)C=CC=C1] | 5.61
31 | CC1CCN(c2nc(CN3CCOCC3)nc3scc(-c4cccs4)c23)CC1 [T5932815, CC1CCN(CC1)C1=C2C(SC=C2C2=CC=CS2)=NC(CN2CCOCC2)=N1] | 2
32 | O=C(Nc1ccccc1N1CCCC1)c1cc(S(=O)(=O)N2CCOCC2)ccc1Cl [T6137813, ClC1=C(C=C(C=C1)S(=O)(=O)N1CCOCC1)C(=O)NC1=C(C=CC=C1)N1CCCC1] | 5.04
33 | O=C(CSc1nnc(-c2cccc(Cl)c2)n1-c1ccccc1C(F)(F)F)NCc1ccco1 [T5258076, FC(F)(F)C1=C(C=CC=C1)N1C(SCC(=O)NCC2=CC=CO2)=NN=C1C1=CC(Cl)=CC=C1] | 4.76
34 | c1ccc(CNc2nc(CN3CCOCC3)nc3scc(-c4cccs4)c23)cc1 [T5605915, C(NC1=C2C(SC=C2C2=CC=CS2)=NC(CN2CCOCC2)=N1)C1=CC=CC=C1] | 4.67
35 | O=C(COc1ccccc1-c1ccccc1)NCC1CCCCC1 [T5339957, O=C(COC1=C(C=CC=C1)C1=CC=CC=C1)NCC1CCCCC1] | 6.88
36 | O=C(CSc1nc2ccccc2c(=O)n1Cc1ccco1)N1CCN(c2ccccc2)CC1 [T5344625, O=C(CSC1=NC2=C(C=CC=C2)C(=O)N1CC1=CC=CO1)N1CCN(CC1)C1=CC=CC=C1] | 1.72
37 | O=C(Nc1ccccc1N1CCCC1)c1cc(S(=O)(=O)N2CCOCC2)ccc1F [T6382120, FC1=C(C=C(C=C1)S(=O)(=O)N1CCOCC1)C(=O)NC1=C(C=CC=C1)N1CCCC1] | 2.86
38 | Cc1nc(SCC(=O)NCCC(C)C)c(C#N)c(C)c1C [T5989363, CC(C)CCNC(=O)CSC1=C(C#N)C(C)=C(C)C(C)=N1] | 7.91
39 | CCC(C)c1ccc(S(=O)(=O)Nc2ccc(F)cc2C)cc1 (stereo not drawn) [T5989159, CCC(C)C1=CC=C(C=C1)S(=O)(=O)NC1=C(C)C=C(F)C=C1] | 1.67
40 | CC(Nc1nc(CN2CCOCC2)nc2sc3c(c12)CCC3)c1cccc(Cl)c1 (stereo not drawn) [T5952126, CC(NC1=C2C3=C(CCC3)SC2=NC(CN2CCOCC2)=N1)C1=CC(Cl)=CC=C1] | 1.53
41 | CN(C1CCCCCC1)S(=O)(=O)c1cccc(C#N)c1 [T6302141, CN(C1CCCCCC1)S(=O)(=O)C1=CC(=CC=C1)C#N] | 2.24
42 | CCOc1ccc(C(=O)Nc2cc(C)ccc2F)cc1 [T5869032, CCOC1=CC=C(C=C1)C(=O)NC1=C(F)C=CC(C)=C1] | 1.1
43 | Cc1nc(SCC(=O)NC(C)c2cccs2)c(C#N)c(C)c1C (stereo not drawn) [T5788505, CC(NC(=O)CSC1=C(C#N)C(C)=C(C)C(C)=N1)C1=CC=CS1] | 1.99
44 | COc1ccc(C2CCCN2C(=O)C2CC(=O)N(c3ccccc3F)C2)c(OC)c1 (stereo not drawn) [T6496714, COC1=CC(OC)=C(C=C1)C1CCCN1C(=O)C1CN(C(=O)C1)C1=C(F)C=CC=C1] | 2.44
45 | CC(C)CCn1cnc2c1c(=O)n(CC(=O)NC(C)C)c(=O)n2Cc1ccccc1 [T5488769, CC(C)CCN1C=NC2=C1C(=O)N(CC(=O)NC(C)C)C(=O)N2CC1=CC=CC=C1] | 9.06
46 | O=c1c2ccccc2nc(CN2CCOCC2)n1Cc1nc(-c2ccc(F)cc2)cs1 [T5938605, FC1=CC=C(C=C1)C1=CSC(CN2C(CN3CCOCC3)=NC3=C(C=CC=C3)C2=O)=N1] | 8.71
47 | O=S(=O)(c1ccc(Sc2ncnc3scc(-c4ccc(F)cc4)c23)nc1)N1CCOCC1 [T5643556, FC1=CC=C(C=C1)C1=CSC2=C1C(SC1=NC=C(C=C1)S(=O)(=O)N1CCOCC1)=NC=N2] | 6.19
48 | COc1ccc(OC)c(C2CCCN2C(=O)C2CC(=O)N(c3ccccc3)C2)c1 (stereo not drawn) [T6517641, COC1=CC(C2CCCN2C(=O)C2CN(C(=O)C2)C2=CC=CC=C2)=C(OC)C=C1] | 6.83
49 | CCn1c(SCC(=O)Nc2ccccc2C#N)nc2ccsc2c1=O [T6068357, CCN1C(=O)C2=C(C=CS2)N=C1SCC(=O)NC1=C(C=CC=C1)C#N] | 1.49
50 | Cc1cc(Cl)c(C)c(S(=O)(=O)NCCCN2CCCC2=O)c1Cl [T6312190, CC1=C(Cl)C(=C(C)C(Cl)=C1)S(=O)(=O)NCCCN1CCCC1=O] | 2.02
51 | N#Cc1ccccc1S(=O)(=O)N1CCN(Cc2ccc(-c3ccccc3)cc2)CC1 [T5432718, O=S(=O)(N1CCN(CC2=CC=C(C=C2)C2=CC=CC=C2)CC1)C1=C(C=CC=C1)C#N] | 6.33
52 | O=C(Nc1ccccc1O)c1ccccc1Br [T6043692, OC1=C(NC(=O)C2=C(Br)C=CC=C2)C=CC=C1] | 4.11
53 | O=C(Nc1ccc2c(c1)OCCCO2)c1cccc(N2CCCC2=O)c1 [T5609721, O=C(NC1=CC2=C(OCCCO2)C=C1)C1=CC(=CC=C1)N1CCCC1=O] | 4.12
54 | O=S(=O)(c1ccc(CSc2ncnc3scc(-c4ccc(F)cc4)c23)o1)N1CCCC1 [T6366633, FC1=CC=C(C=C1)C1=CSC2=C1C(SCC1=CC=C(O1)S(=O)(=O)N1CCCC1)=NC=N2] | 1.67
